Experiments:
KRAS G12D = KRAS G12D (Homo sapiens, UniProt P01116, G12D); assay: GDP-GTP exchange assay (bodipy-GDP/GppNHp, SOS1), KRAS G12D; format: biochemical; details: bodipy-loaded KRAS G12D 2.5 nM, 4 h pre-incubation; value for the most potent isomer quoted for certain compounds; read-out: G12D (KRAS G12D exchange assay IC50)
Description: (§1) The inhibitor potency of the exemplified compounds was determined in a fluorescence based guanine nucleotide exchange assay, which measures the exchange of bodipy-GDP (fluorescently labeled GOP) for GppNHp (Non-hydrolyzable GTP analog) to generate the active state of KRAS in the presence of SOS1 (guanine nucleotide exchange factor). Inhibitors were serially diluted in DMSO and a volume of 0.1 μL was transferred to the wells of a black low volume 384-well plate. 5 μL/well volume of bodipy-loaded KRAS G12D diluted to 2.5 nM in assay buffer (25 mM Hepes pH 7.5, 50 mM NaCl, 10 mM MgCl2 and 0.01% Brij-35) was added to the plate and pre-incubated with inhibitor for 4 h at r.t. Appropriate controls (enzyme with no inhibitor or with a G12D inhibitor) were included on the plate. The exchange was initiated by the addition of a 5 μL/well volume containing 1 mM GppNHp and 300 nM SOS1 in assay buffer. The 10 μL/well reaction concentration of the bodipy-loaded KRAS G12D, GppNHp, and SOS1 were 2.5 nM, 500 μM, and 150 nM, respectively. The reaction plates were incubated at r.t. for 2 h, a time estimated for complete GDP-GTP exchange in the absence of inhibitor. For the KRAS G12V mutant, similar guanine nucleotide exchange assays were used with 2.5 nM as final concentration for the bodipy loaded KRAS proteins and 3 h incubation after adding GppNHp-SOS1 mixture. A cyclic peptide described to selectively bind G12D mutant (Sakamoto et al., BBRC 484.3 (2017), 605-611) or internal compounds with confirmed binding were used as positive controls in the assay plates. Fluorescence intensities were measured on a PheraStar plate reader instrument (BMG Labtech) with excitation at 485 nm and emission at 520 nm.
(§2) Either GraphPad prism or Genedata Screener SmartFit was used to analyze the data. The IC50 values were derived by fitting the data to a four parameter logistic equation producing a sigmoidal dose-response curve with a variable Hill coefficient.
(§3) The symbol “†” indicates IC50≤100 nM, “††” indicates IC50>100 nM but ≤1 μM; and “†††” indicates IC50 is >1 μM but ≤5 μM, “††††” indicates IC50 is >5 μM but ≤10 μM. “NA” indicates IC50 not available.

KRAS G12V = KRAS G12V (Homo sapiens, UniProt P01116, G12V); assay: GDP-GTP exchange assay (bodipy-GDP/GppNHp, SOS1), KRAS G12V; format: biochemical; details: KRAS G12V mutant; value for the most potent isomer quoted for certain compounds; read-out: G12V (KRAS G12V exchange assay IC50)
Description: as §1, §2, §3

Sequence of KRAS G12V (P01116 1-188 isoform P01116-2 G12V): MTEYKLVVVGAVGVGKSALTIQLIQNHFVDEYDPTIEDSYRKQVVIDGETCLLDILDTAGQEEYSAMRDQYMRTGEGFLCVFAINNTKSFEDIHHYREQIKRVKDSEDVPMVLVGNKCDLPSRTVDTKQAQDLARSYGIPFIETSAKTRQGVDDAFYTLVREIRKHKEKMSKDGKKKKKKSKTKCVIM
Sequence of KRAS G12D (P01116 1-188 isoform P01116-2 G12D): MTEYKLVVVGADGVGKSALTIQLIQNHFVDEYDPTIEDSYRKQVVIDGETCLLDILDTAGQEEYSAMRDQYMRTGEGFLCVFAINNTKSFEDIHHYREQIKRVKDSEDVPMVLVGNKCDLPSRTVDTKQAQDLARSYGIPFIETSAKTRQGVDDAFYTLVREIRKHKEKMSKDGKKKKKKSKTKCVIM

SMILES	IC50 (KRAS G12D)	IC50 (KRAS G12V)
Cc1nc2c(F)c(-c3cccc(Cl)c3Cl)c(CCC#N)cc2c2c1cc([C@H]1C[C@H](OCc3c(F)cccc3C#N)CN1C(=O)C1CC1)n2[C@H]1[C@H]2CN[C@@H]1C2 [Example 126]	≤ 100 nM	≤ 100 nM
Cc1nc2c(F)c(-c3cccc(Cl)c3Cl)c(CCC#N)cc2c2c1cc([C@H]1C[C@H](OCc3ccccc3)CN1C(=O)C1(C)CC1)n2[C@H]1[C@H]2CN[C@@H]1C2 [Example 127]	≤ 100 nM	≤ 100 nM
Cc1nc(CO[C@H]2C[C@H](c3cc4c(C)nc5c(F)c(-c6cccc(Cl)c6Cl)c(CCC#N)cc5c4n3[C@H]3[C@H]4CN[C@@H]3C4)N(C(=O)C3(C)CC3)C2)cs1 [Example 128]	≤ 100 nM	≤ 100 nM
Cc1ncccc1O[C@H]1C[C@H](c2cc3c(C)nc4c(F)c(-c5cccc(Cl)c5Cl)c(CCC#N)cc4c3n2[C@H]2[C@H]3CN[C@@H]2C3)N(C(=O)C2CC2)C1 [Example 129]	≤ 100 nM	≤ 100 nM
Cc1ccncc1O[C@H]1C[C@H](c2cc3c(C)nc4c(F)c(-c5cccc(Cl)c5Cl)c(CCC#N)cc4c3n2[C@H]2[C@H]3CN[C@@H]2C3)N(C(=O)C2CC2)C1 [Example 130]	≤ 100 nM	≤ 100 nM
Cc1nc2c(F)c(-c3cccc(Cl)c3Cl)c(CCC#N)cc2c2c1cc([C@H]1C[C@H](Oc3nccc4ccccc34)CN1C(=O)C1CC1)n2[C@H]1[C@H]2CN[C@@H]1C2 [Example 131]	≤ 100 nM	≤ 100 nM
Cc1nc2cc(O[C@H]3C[C@H](c4cc5c(C)nc6c(F)c(-c7cccc(Cl)c7Cl)c(CCC#N)cc6c5n4[C@H]4[C@H]5CN[C@@H]4C5)N(C(=O)C4CC4)C3)ccc2s1 [Example 132]	≤ 100 nM	≤ 100 nM
Cc1nc2c(F)c(-c3cccc(Cl)c3Cl)c(CCC#N)cc2c2c1cc([C@H]1C[C@H](Oc3cccc4c3cnn4C)CN1C(=O)C1CC1)n2[C@H]1[C@H]2CN[C@@H]1C2 [Example 133]	≤ 100 nM	≤ 100 nM
Cc1cccc(O[C@H]2C[C@H](c3cc4c(C)nc5c(F)c(-c6cccc(Cl)c6Cl)c(CCC#N)cc5c4n3[C@H]3C4CNC3C4)N(C(=O)C3CC3)C2)c1 (some centres unmarked) [Example 134]	≤ 100 nM	≤ 100 nM
Cc1nc2c(F)c(-c3cccc(Cl)c3Cl)c(CCC#N)cc2c2c1cc([C@H]1C[C@H](Oc3cnn(C)c3)CN1C(=O)C1CC1)n2[C@H]1[C@H]2CN[C@@H]1C2 [Example 135]	≤ 100 nM	≤ 100 nM
Cc1nc2c(F)c(-c3cccc(Cl)c3Cl)c(CCC#N)cc2c2c1cc([C@H]1C[C@H](Oc3cncnc3)CN1C(=O)C1CC1)n2[C@H]1[C@H]2CN[C@@H]1C2 [Example 136]	≤ 100 nM	≤ 100 nM
Cc1nc2c(F)c(-c3cccc(Cl)c3Cl)c(CCC#N)cc2c2c1cc([C@H]1C[C@H](Oc3cnccn3)CN1C(=O)C1CC1)n2[C@H]1[C@H]2CN[C@@H]1C2 [Example 137]	≤ 100 nM	≤ 100 nM
Cc1nc2c(F)c(-c3cccc(Cl)c3Cl)c(CCC#N)cc2c2c1cc([C@H]1C[C@H](Oc3cccnn3)CN1C(=O)C1CC1)n2[C@H]1[C@H]2CN[C@@H]1C2 [Example 138]	≤ 100 nM	≤ 100 nM
Cc1ncccc1CO[C@H]1C[C@H](c2cc3c(C)nc4c(F)c(-c5cccc(Cl)c5Cl)c(CCC#N)cc4c3n2[C@H]2[C@H]3CN[C@@H]2C3)N(C(=O)C2CC2)C1 [Example 139]	≤ 100 nM	≤ 100 nM
Cc1ccnc(C)c1CO[C@H]1C[C@H](c2cc3c(C)nc4c(F)c(-c5cccc(Cl)c5Cl)c(CCC#N)cc4c3n2[C@H]2[C@H]3CN[C@@H]2C3)N(C(=O)C2(C)CC2)C1 [Example 140]	≤ 100 nM	≤ 100 nM
Cc1nc2c(F)c(-c3cccc(Cl)c3Cl)c(CCC#N)cc2c2c1cc([C@H]1C[C@H](Oc3cccc(C(F)(F)F)n3)CN1C(=O)C1CC1)n2[C@H]1C2CNC1C2 (some centres unmarked) [Example 142]	≤ 100 nM	≤ 100 nM
Cc1nc2c(F)c(-c3cccc(Cl)c3Cl)c(CCC#N)cc2c2c1cc([C@H]1C[C@H](n3nncc3-c3ccccc3)CN1C(=O)C1CC1)n2[C@H]1[C@H]2CN[C@@H]1C2 [Example 143]	≤ 100 nM	≤ 100 nM

SMILES	IC50 (KRAS G12D)	IC50 (KRAS G12V)
Cc1nc2c(F)c(-c3cccc(Cl)c3Cl)c(CCC#N)cc2c2c1cc([C@H]1C[C@H](n3cc(Cc4ccccc4)nn3)CN1C(=O)C1CC1)n2[C@H]1[C@H]2CN[C@@H]1C2 [Example 145]	≤ 100 nM	≤ 100 nM
COC(=O)N1C[C@@H](Oc2ccccn2)C[C@@H]1c1cc2c(-c3ccc(CN(C)C)c(F)c3F)nc3c(F)c(-c4cccc(Cl)c4Cl)c(CCC#N)cc3c2n1[C@H]1[C@H]2CN[C@@H]1C2 [Example 148]	≤ 100 nM	≤ 100 nM
Cc1nc2c(F)c(-c3cccc(Cl)c3Cl)c(CCC#N)cc2c2c1cc([C@H]1C[C@H](OCc3cccnc3N)CN1C(=O)C1CC1)n2[C@H]1[C@H]2CN[C@@H]1C2 [Example 149]	≤ 100 nM	≤ 100 nM
Cc1cccnc1CO[C@H]1C[C@H](c2cc3c(C)nc4c(F)c(-c5cccc(Cl)c5Cl)c(CCC#N)cc4c3n2[C@H]2[C@H]3CN[C@@H]2C3)N(C(=O)C2CC2)C1 [Example 150]	≤ 100 nM	≤ 100 nM
Cc1nc2c(F)c(-c3cccc(Cl)c3Cl)c(CCC#N)cc2c2c1cc([C@H]1C[C@H](OCc3cccc(C#N)c3F)CN1C(=O)C1CC1)n2[C@H]1[C@H]2CN[C@@H]1C2 [Example 151]	≤ 100 nM	≤ 100 nM
Cc1nc2c(F)c(-c3cccc(Cl)c3Cl)c(CCC#N)cc2c2c1cc([C@H]1C[C@H](OCc3ccc(C#N)cc3)CN1C(=O)C1CC1)n2[C@H]1[C@H]2CN[C@@H]1C2 [Example 152]	≤ 100 nM	≤ 100 nM
Cc1nc2c(F)c(-c3cccc(Cl)c3Cl)c(CCC#N)cc2c2c1cc([C@H]1C[C@H](OCC3CCCC3)CN1C(=O)C1CC1)n2[C@H]1[C@H]2CN[C@@H]1C2 [Example 153]	≤ 100 nM	≤ 100 nM
COc1cccc(CO[C@H]2C[C@H](c3cc4c(C)nc5c(F)c(-c6cccc(Cl)c6Cl)c(CCC#N)cc5c4n3[C@H]3[C@H]4CN[C@@H]3C4)N(C(=O)C3CC3)C2)c1F [Example 154]	≤ 100 nM	≤ 100 nM
Cc1nc2c(F)c(-c3cccc(Cl)c3Cl)c(CCC#N)cc2c2c1cc([C@H]1C[C@H](OCc3ccc(Cl)cc3F)CN1C(=O)C1CC1)n2[C@H]1[C@H]2CN[C@@H]1C2 [Example 155]	≤ 100 nM	≤ 100 nM
Cc1nc2c(F)c(-c3cccc(Cl)c3Cl)c(CCC#N)cc2c2c1cc([C@H]1C[C@H](OCc3cccc(F)c3C#N)CN1C(=O)C1CC1)n2[C@H]1[C@H]2CN[C@@H]1C2 [Example 156]	≤ 100 nM	≤ 100 nM
Cc1nc2c(F)c(-c3cccc(Cl)c3Cl)c(CCC#N)cc2c2c1cc([C@H]1C[C@H](OCc3cc(F)ccc3C#N)CN1C(=O)C1CC1)n2[C@H]1[C@H]2CN[C@@H]1C2 [Example 157]	≤ 100 nM	≤ 100 nM
CC(C)(O)c1ccc(-c2nc3c(F)c(-c4cccc(Cl)c4Cl)c(CCC#N)cc3c3c2cc([C@H]2C[C@H](OCc4c(F)cccc4F)CN2C(=O)C2CC2)n3[C@H]2[C@H]3CN[C@@H]2C3)cn1 [Example 158]	≤ 100 nM	≤ 100 nM
Cc1nc2c(F)c(-c3cccc(Cl)c3Cl)c(CCC#N)cc2c2c1cc([C@H]1C[C@H](OCc3ccc(Cl)cc3C#N)CN1C(=O)C1CC1)n2[C@H]1[C@H]2CN[C@@H]1C2 [Example 159]	≤ 100 nM	≤ 100 nM
Cc1nc2c(F)c(-c3cccc(Cl)c3Cl)c(CCC#N)cc2c2c1cc([C@H]1C[C@H](n3nncc3Cc3ccccc3)CN1C(=O)C1CC1)n2[C@H]1[C@H]2CN[C@@H]1C2 [Example 160]	100 to 1000 nM	≤ 100 nM
Cc1nc2c(F)c(-c3cccc(Cl)c3Cl)c(CCC#N)cc2c2c1cc([C@H]1C[C@H](Oc3cccc(Cl)c3)CN1C(=O)C1CC1)n2[C@H]1[C@H]2CN[C@@H]1C2 [Example 161]	≤ 100 nM	≤ 100 nM
COC(=O)N1C[C@@H](Oc2ccccn2)C[C@@H]1c1cc2c(C)nc3c(F)c(-c4cccc(Cl)c4Cl)c(CCC#N)cc3c2n1[C@H]1[C@H]2CN[C@@H]1C2 [Example 162]	≤ 100 nM	≤ 100 nM
Cc1nc2c(F)c(-c3cccc(Cl)c3Cl)c(CCC#N)cc2c2c1cc([C@H]1C[C@H](OCc3ccccc3S(C)(=O)=O)CN1C(=O)C1CC1)n2[C@H]1[C@H]2CN[C@@H]1C2 [Example 163]	≤ 100 nM	≤ 100 nM

— patent US20240390340A1 (INCYTE CORPORATION, priority 2023, published 2024)
